Counter-ions that a name gives are not always drawn.
Columns and labels:
biochemical = assay: biochemical; parameters: species or system Influenza A Virus H1N1
Male SD rats = assay: Atrial effective refractory period (AERP) prolonging effect, atrium electrostimulation model; format: in vivo, rat; conditions: anesthetized male SD rats, drug 10 mg/kg/10 min, basic cycle 120 ms, three examples per group
[1] = tested on: atrial fibrillation model; conditions: described in Patent Document 1 (JP 2012-236814 A); cited from earlier work

## CCC(CC)O[C@@H]1C=C(C(=O)c2cccs2)C[C@H](N)[C@H]1NC(C)=O [Example 1, N-[(1R,2R,6S)-6-amino-2-(1-ethylpropoxy)-4-(thiophene-2-carbonyl)-3-cyclohexen-1-yl]acetamide]
biochemical
  IC50: 71.7 µM
Male SD rats
  ΔAERP prolongation: 40.0 ms

## CCC(CC)O[C@@H]1C=C(C(=O)c2ccc(C)o2)C[C@H](N)[C@H]1NC(C)=O [Example 3, N-[(1R,2R,6S)-6-amino-2-(1-ethylpropoxy)-4-(5-methylfuran-2-carbonyl)-3-cyclohexen-1-yl]acetamide]
Male SD rats
  ΔAERP prolongation: 14.5 ms

## CCC(CC)O[C@@H]1C=C(C(=O)c2ccc(C)s2)C[C@H](N)[C@H]1NC(C)=O [Example 4, N-[(1R,2R,6S)-6-amino-2-(1-ethylpropoxy)-4-(5-methylthiophene-2-carbonyl)-3-cyclohexen-1-yl]acetamide]
biochemical
  IC50: 66.3 µM

## CCC(CC)O[C@@H]1C=C(C(=O)c2ccc(F)cc2)C[C@H](N)[C@H]1NC(C)=O [Example 5, N-[(1R,2R,6S)-6-amino-2-(1-ethylpropoxy)-4-(4-fluorobenzoyl)-3-cyclohexen-1-yl]acetamide]
Male SD rats
  ΔAERP prolongation: 22.0 ms

## CCC(CC)O[C@@H]1C=C(C(=O)c2ccccc2)C[C@H](N)[C@H]1NC(C)=O.Cl [Example 6, N-[(1R,2R,6S)-6-amino-4-benzoyl-2-(1-ethylpropoxy)-3-cyclohexen-1-yl]acetamide hydrochloride]
biochemical
  IC50: 86 µM
Male SD rats
  ΔAERP prolongation: 35.7 ms

## CCC(CC)O[C@@H]1C=C(C(=O)Cc2ccccc2)C[C@H](N)[C@H]1NC(C)=O [Example 7, N-[(1R,2R,6S)-6-amino-2-(1-ethylpropoxy)-4-phenylacetyl-3-cyclohexen-1-yl]acetamide]
Male SD rats
  ΔAERP prolongation: 22.0 ms

## CCC(CC)O[C@@H]1C=C(C(=O)C(C)(C)C)C[C@H](N)[C@H]1NC(C)=O [Example 10, N-[(1R,2R,6S)-6-amino-4-(2,2-dimethylpropionyl)-2-(1-ethylpropoxy)-3-cyclohexen-1-yl]acetamide]
Male SD rats
  ΔAERP prolongation: 16.0 ms

## CCCCC(=O)C1=C[C@@H](OC(CC)CC)[C@H](NC(C)=O)[C@@H](N)C1.Cl [Example 12, N-[(1R,2R,6S)-6-amino-2-(1-ethylpropoxy)-4-pentanoyl-3-cyclohexen-1-yl]acetamide hydrochloride]
biochemical
  IC50: 47.3 µM
Male SD rats
  ΔAERP prolongation: 23.0 ms

## CCC(CC)O[C@@H]1C=C(C(=O)c2ccccc2)C[C@H](N)[C@H]1NC(=O)c1ccccc1 [Example 16, N-[(1R,2R,6S)-6-amino-4-benzoyl-2-(1-ethylpropoxy)-3-cyclohexen-1-yl]benzamide]
Male SD rats
  ΔAERP prolongation: 18.7 ms

## CCC(CC)O[C@@H]1C=C(C(=O)c2ccccc2)C[C@H](N)[C@H]1NC(=O)C(C)(C)C [Example 17, N-[(1R,2R,6S)-6-amino-4-benzoyl-2-(1-ethylpropoxy)-3-cyclohexen-1-yl]-2,2-dimethylpropionamide]
biochemical
  IC50: > 300 µM
Male SD rats
  ΔAERP prolongation: 39.3 ms

## CCC(CC)O[C@@H]1C=C(C(=O)c2ccccc2)C[C@H](NC(C)=O)[C@H]1N [Example 18, N-[(1S,5R,6R)-6-amino-3-benzoyl-5-(1-ethylpropoxy)-3-cyclohexen-1-yl]acetamide]
biochemical
  IC50: > 300 µM
Male SD rats
  ΔAERP prolongation: 24.0 ms

## CCC(CC)O[C@@H]1C=C(C(O)c2ccccc2)C[C@H](N)[C@H]1NC(C)=O (stereo partly drawn) [Example 19, N-[(1R,2R,6S)-6-amino-2-(1-ethylpropoxy)-4-(hydroxyphenylmethyl)-3-cyclohexen-1-yl]acetamide]
biochemical
  IC50: 87.3 µM

## CCC(CC)O[C@@H]1C=C(C(=O)c2cccs2)C[C@H](NC(C)=O)[C@H]1N [Example 21, N-[(1S,5R,6R)-6-amino-5-(1-ethylpropoxy)-3-(thiophene-2-carbonyl)-3-cyclohexen-1-yl]acetamide]
biochemical
  IC50: > 300 µM
Male SD rats
  ΔAERP prolongation: 29.5 ms

## CCOCC1=C[C@@H](OC(CC)CC)[C@H](NC(C)=O)[C@@H](N)C1 [Example 23, N-[(1R,2R,6S)-6-amino-4-ethoxymethyl-2-(1-ethylpropoxy)-3-cyclohexen-1-yl]acetamide]
biochemical
  IC50: 80.1 µM
Male SD rats
  ΔAERP prolongation: 30.0 ms

## CCC(CC)O[C@@H]1CC(C(O)c2ccccc2)C[C@H](N)[C@H]1NC(C)=O (stereo partly drawn) [Example 24, N-[(1R,2S,6R)-2-amino-6-(1-ethylpropoxy)-4-(hydroxyphenylmethyl)cyclohexyl]acetamide]
biochemical
  IC50: > 300 µM
Male SD rats
  ΔAERP prolongation: 20.5 ms

## CCC(CC)O[C@@H]1C=C(C(=O)c2cccs2)C[C@H](N)[C@H]1NC(=O)CC(C)C [Example 25, N-[(1R,2R,6S)-6-amino-2-(1-ethylpropoxy)-4-(thiophene-2-carbonyl)-3-cyclohexen-1-yl]-3-methylbutyramide]
Male SD rats
  ΔAERP prolongation: 37.7 ms

## CCN[C@@H]1[C@@H](N)CC(C(=O)c2cccs2)=C[C@H]1OC(CC)CC [Example 26, [(3R,4R,5S)-5-amino-4-ethylamino-3-(1-ethylpropoxy)cyclohexen-1-yl]thiophene-2-yl-methanone]
biochemical
  IC50: > 300 µM

## CCNC(=O)N[C@@H]1[C@@H](N)CC(C(=O)c2cccs2)=C[C@H]1OC(CC)CC [Example 27, [(1R,2R,6S)-6-amino-2-(1-ethylpropoxy)-4-(thiophene-2-carbonyl)cyclohexen-3-yl]-3-ethylurea]
biochemical
  IC50: > 300 µM
Male SD rats
  ΔAERP prolongation: 56.0 ms

## CCCCCCC(=O)C1=C[C@@H](OC(CC)CC)[C@H](NC(C)=O)[C@@H](N)C1 [Example 28, N-[(1R,2R,6S)-6-amino-2-(1-ethylpropoxy)-4-heptanoyl-3-cyclohexen-1-yl]acetamide]
biochemical
  IC50: 24.6 µM

## CCC(CC)O[C@@H]1C=C(C(=O)c2ccc(OC)s2)C[C@H](N)[C@H]1NC(C)=O [Example 30, N-[(1R,2R,6S)-6-amino-2-(1-ethylpropoxy)-4-(5-methoxythiophene-2-carbonyl)-3-cyclohexen-1-yl]acetamide hydrochloride]
biochemical
  IC50: 10.6 µM

## CCOC(=O)C1=C[C@@H](OC(CC)CC)[C@H](NC(C)=O)[C@@H](N)C1 [Oseltamivir, reference compound]
Male SD rats
  ΔAERP prolongation: 15.7 ms
[1]
  atrial fibrillation suppression effect: has an atrial fibrillation suppression effect

From patent US9950989B2, “Cyclic hydrocarbon compound” (TOA EIYO LTD., priority 2014, dated 2018)
